Assay results reported in PMC11079024, “Identification of a family of species-selective complex I inhibitors as potential anthelmintics” (Nature Communications, 2024).
Read-outs that look alike come from different tables or passages of the source.

Legend:
[1] = molecular target: C. elegans (N2) complex I (NADH:ubiquinone oxidoreductase) (Caenorhabditis elegans, UniProt P24887+Q93873+Q94360); assay: biochemical; format: biochemical; conditions: for activity at 0.0001 µM / activity at 0.0005 µM / activity at 0.001 µM / activity at 0.0025 µM / activity at 0.005 µM / activity at 0.013 µM / activity at 0.025 µM / activity at 0.063 µM / activity at 0.125 µM / activity at 0.313 µM / activity at 0.625 µM / activity at 1.5 µM / activity at 3 µM / activity at 15 µM / activity at 37.5 µM / activity at 75 µM: read-out: C. elegans mitochondrial complex I activity; for Log IC50 C. elegans complex I: log10 of IC50 in µM, C. elegans mitochondria
C. elegans (N2) complex I (NADH:ubiquinone oxidoreductase), sequence (Q94360 17-199): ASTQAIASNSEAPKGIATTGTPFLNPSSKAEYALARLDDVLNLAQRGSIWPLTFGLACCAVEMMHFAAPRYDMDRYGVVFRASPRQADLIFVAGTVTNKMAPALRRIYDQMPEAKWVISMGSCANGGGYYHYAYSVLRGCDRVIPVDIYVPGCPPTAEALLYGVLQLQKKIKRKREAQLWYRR
C. elegans (N2) complex I (NADH:ubiquinone oxidoreductase), sequence (P24887 whole entry): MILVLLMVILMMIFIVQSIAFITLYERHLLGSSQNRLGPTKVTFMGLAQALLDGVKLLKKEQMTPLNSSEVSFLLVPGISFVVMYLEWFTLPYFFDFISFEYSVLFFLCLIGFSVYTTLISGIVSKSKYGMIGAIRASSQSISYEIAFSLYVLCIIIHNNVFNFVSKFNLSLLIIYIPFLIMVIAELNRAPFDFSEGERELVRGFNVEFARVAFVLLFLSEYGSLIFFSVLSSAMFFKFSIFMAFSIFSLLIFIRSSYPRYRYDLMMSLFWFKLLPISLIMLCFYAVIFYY
C. elegans (N2) complex I (NADH:ubiquinone oxidoreductase), sequence (Q93873 31-482): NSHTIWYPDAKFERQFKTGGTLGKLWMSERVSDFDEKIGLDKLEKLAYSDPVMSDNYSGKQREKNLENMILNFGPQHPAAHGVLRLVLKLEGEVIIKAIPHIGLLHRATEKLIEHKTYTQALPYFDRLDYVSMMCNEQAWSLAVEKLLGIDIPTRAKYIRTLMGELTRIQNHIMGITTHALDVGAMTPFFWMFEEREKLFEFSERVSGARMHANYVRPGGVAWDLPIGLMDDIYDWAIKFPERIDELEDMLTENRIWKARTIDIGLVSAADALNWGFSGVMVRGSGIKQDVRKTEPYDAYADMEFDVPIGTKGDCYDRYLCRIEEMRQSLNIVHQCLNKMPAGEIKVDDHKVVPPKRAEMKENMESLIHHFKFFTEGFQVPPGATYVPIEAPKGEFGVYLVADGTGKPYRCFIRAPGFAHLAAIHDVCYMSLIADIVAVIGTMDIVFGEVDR
In short: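 Mitochondria, 0.2 mg/mL protein, freeze-thawed three times, assayed in 25 mM KPi pH 7.5 with BSA, 80 μM NADH, 60 μM decylubiquinone, 160 μM DCIP, antimycin A and KCN. Rate from initial linear slope of A600 over 15 min. % of solvent control.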

[2] = molecular target: B. taurus (heart) complex I (Bos taurus, UniProt P03887+P17694+P42026); assay: biochemical; format: biochemical; conditions: for activity at 0.0001 µM / activity at 0.0005 µM / activity at 0.001 µM / activity at 0.0025 µM / activity at 0.005 µM / activity at 0.013 µM / activity at 0.025 µM / activity at 0.063 µM / activity at 0.125 µM / activity at 0.313 µM / activity at 0.625 µM / activity at 1.5 µM / activity at 3 µM / activity at 15 µM / activity at 37.5 µM / activity at 75 µM: read-out: B. taurus mitochondrial complex I activity; for Log IC50 B. taurus complex I: log10 of IC50 in µM, B. taurus mitochondria
B. taurus (heart) complex I, sequence (P03887 whole entry): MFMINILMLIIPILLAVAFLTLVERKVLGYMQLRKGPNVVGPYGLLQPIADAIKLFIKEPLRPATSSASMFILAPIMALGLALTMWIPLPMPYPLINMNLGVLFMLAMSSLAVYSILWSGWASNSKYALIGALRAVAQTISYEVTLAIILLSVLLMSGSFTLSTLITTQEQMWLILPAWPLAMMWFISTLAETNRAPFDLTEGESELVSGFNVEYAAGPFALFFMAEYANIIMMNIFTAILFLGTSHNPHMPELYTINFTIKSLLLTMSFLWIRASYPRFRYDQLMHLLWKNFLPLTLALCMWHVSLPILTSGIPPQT
B. taurus (heart) complex I, sequence (P17694 34-463): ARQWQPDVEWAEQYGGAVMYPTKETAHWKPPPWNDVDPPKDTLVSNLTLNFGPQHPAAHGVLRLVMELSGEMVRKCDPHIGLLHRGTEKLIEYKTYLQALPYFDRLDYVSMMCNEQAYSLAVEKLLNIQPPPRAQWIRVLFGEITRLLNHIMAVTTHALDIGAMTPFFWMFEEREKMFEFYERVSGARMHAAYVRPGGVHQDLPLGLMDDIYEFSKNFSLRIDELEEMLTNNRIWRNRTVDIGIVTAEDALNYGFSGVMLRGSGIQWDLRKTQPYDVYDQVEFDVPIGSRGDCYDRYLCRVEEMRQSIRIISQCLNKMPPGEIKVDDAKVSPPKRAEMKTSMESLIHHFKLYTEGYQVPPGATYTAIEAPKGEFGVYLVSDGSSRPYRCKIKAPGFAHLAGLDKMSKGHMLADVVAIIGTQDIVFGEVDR
B. taurus (heart) complex I, sequence (P42026 38-216): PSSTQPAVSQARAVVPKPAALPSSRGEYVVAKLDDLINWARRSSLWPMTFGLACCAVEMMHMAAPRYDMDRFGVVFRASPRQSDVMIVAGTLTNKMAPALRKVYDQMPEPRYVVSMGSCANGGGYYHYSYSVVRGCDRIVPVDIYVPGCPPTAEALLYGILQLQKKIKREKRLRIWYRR
In short: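 Complex I activity followed as DCIP reduction (600 nm, 30 s reads, 15 min) with 80 μM NADH and 60 μM decylubiquinone in 25 mM KPi pH 7.5 containing 2 μM antimycin A and 2 mM KCN. Freeze-thawed mouse or bovine heart mitochondria at 0.2 mg/mL; initial-rate percent of solvent control, single-point 100 μM or dose-response.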

[3] = in vitro complex I dose response on C. elegans mitochondria, average of at least two biological replicates, fit in R (DRC), read-out: IC50 C. elegans complex I
[4] = wild-type C. elegans mitochondria, estimated from fitted dose-response curves, read-out: C. elegans Complex I IC50
[5] = B. taurus heart mitochondria, estimated from fitted dose-response curves, read-out: B. taurus Complex I IC50
[6] = wild-type (N2) mitochondria, read-out: C. elegans Complex I IC50
[7] = wild-type C. elegans, individual Rep1-Rep4, read-out: percent in vitro complex I activity relative to solvent control, single replicates
[8] = wild-type C. elegans, mean of Rep1-4, read-out: percent in vitro complex I activity relative to solvent control, Mean

Cc1ccc(SCCCn2cnc3ccccc32)cc1 [Compound 7926035]
activity at 0.0001 µM [1]: 90.2%
activity at 0.0005 µM [1]: 95.5%
activity at 0.001 µM [1]: 88.3%
activity at 0.0025 µM [1]: 100%
activity at 0.005 µM [1]: 101%
activity at 0.013 µM [1]: 96.9%
activity at 0.025 µM [1]: 95.3%
activity at 0.063 µM [1]: 85.5%
activity at 0.125 µM [1]: 96.1%
activity at 0.313 µM [1]: 69.9%
activity at 0.625 µM [1]: 33.2%
activity at 1.5 µM [1]: 33.2%
activity at 3 µM [1]: 8.58%
activity at 15 µM [1]: 3.26%
activity at 37.5 µM [1]: 1.04%
activity at 75 µM [1]: 3.35%
IC50 [1, 3]: 0.54 µM
Log IC50 C. elegans complex I [1]: -0.27 µM
IC50 [1, 4]: 0.54 µM
IC50 [2, 5]: 3.59 µM
activity at 0.0001 µM [2]: 101%
activity at 0.0005 µM [2]: 105%
activity at 0.001 µM [2]: 99.3%
activity at 0.0025 µM [2]: 106%
activity at 0.005 µM [2]: 102%
activity at 0.013 µM [2]: 101%
activity at 0.025 µM [2]: 100%
activity at 0.063 µM [2]: 98.8%
activity at 0.125 µM [2]: 97%
activity at 0.313 µM [2]: 98.3%
activity at 0.625 µM [2]: 78.8%
activity at 1.5 µM [2]: 78.8%
activity at 3 µM [2]: 41.2%
activity at 15 µM [2]: 10%
activity at 37.5 µM [2]: 2.81%
activity at 75 µM [2]: 1.94%
Log IC50 B. taurus complex I [2]: 0.56 µM

Cc1ccc(SCCCCn2cnc3ccccc32)cc1 [Compound 7925333]
activity at 0.0001 µM [1]: 91.6%
activity at 0.0005 µM [1]: 94.2%
activity at 0.001 µM [1]: 101%
activity at 0.0025 µM [1]: 95.1%
activity at 0.005 µM [1]: 100%
activity at 0.013 µM [1]: 91.2%
activity at 0.025 µM [1]: 93.7%
activity at 0.063 µM [1]: 96.6%
activity at 0.125 µM [1]: 81%
activity at 0.313 µM [1]: 64.2%
activity at 0.625 µM [1]: 65.6%
activity at 1.5 µM [1]: 44%
activity at 3 µM [1]: 28.6%
activity at 15 µM [1]: 10.5%
activity at 37.5 µM [1]: 5.81%
activity at 75 µM [1]: 7.08%
IC50 [1, 3]: 1.04 µM
Log IC50 C. elegans complex I [1]: 0.017 µM
IC50 [1, 6]: 1.04 µM
IC50 [1, 4]: 1.04 µM
IC50 [2, 5]: 7.31 µM
activity at 0.0001 µM [2]: 90.9%
activity at 0.0005 µM [2]: 87.2%
activity at 0.001 µM [2]: 87.5%
activity at 0.0025 µM [2]: 83.2%
activity at 0.005 µM [2]: 83.9%
activity at 0.013 µM [2]: 89.8%
activity at 0.025 µM [2]: 94.2%
activity at 0.063 µM [2]: 97.7%
activity at 0.125 µM [2]: 99.3%
activity at 0.313 µM [2]: 99.3%
activity at 0.625 µM [2]: 90.8%
activity at 1.5 µM [2]: 78.5%
activity at 3 µM [2]: 70%
activity at 15 µM [2]: 25.1%
activity at 37.5 µM [2]: 9.48%
activity at 75 µM [2]: 1.13%
Log IC50 B. taurus complex I [2]: 0.86 µM

Cc1nc2ccccc2n1Cc1ccc(Br)cc1 [Compound 5567167]
remaining activity at 0.0001 µM [1, 7]: 94%
remaining activity at 0.0001 µM [1, 8]: 85.9%
remaining activity at 0.0005 µM [1, 7]: 85.1%
remaining activity at 0.0005 µM [1, 8]: 85.6%
remaining activity at 0.001 µM [1, 7]: 85.9%
remaining activity at 0.001 µM [1, 8]: 84.4%
remaining activity at 0.0025 µM ([1]; 0.0025 µM, wild-type C. elegans, mean of Rep1-4, read-out: percent in vitro complex I activity relative to solvent control, Mean): 79.7%
remaining activity at 0.005 µM [1, 7]: 78%
remaining activity at 0.005 µM [1, 8]: 79.5%
remaining activity at 0.013 µM [1, 7]: 72.2%
remaining activity at 0.013 µM [1, 8]: 70.5%
remaining activity at 0.025 µM [1, 7]: 66.7%
remaining activity at 0.025 µM [1, 8]: 62%
remaining activity at 0.063 µM [1, 7]: 38.8%
remaining activity at 0.063 µM [1, 8]: 36%
remaining activity at 0.125 µM [1, 7]: 23.6%
remaining activity at 0.125 µM [1, 8]: 23.7%
remaining activity at 0.313 µM [1, 7]: 8.78%
remaining activity at 0.313 µM [1, 8]: 11.9%
remaining activity at 0.625 µM ([1]; 0.625 µM, wild-type C. elegans, mean of Rep1-4, read-out: percent in vitro complex I activity relative to solvent control, Mean): 2.34%
remaining activity at 1.5 µM ([1]; 1.5 µM, wild-type C. elegans, mean of Rep1-4, read-out: percent in vitro complex I activity relative to solvent control, Mean): 0.485%
remaining activity at 3 µM ([1]; 3 µM, wild-type C. elegans, mean of Rep1-4, read-out: percent in vitro complex I activity relative to solvent control, Mean): 0.612%
remaining activity at 15 µM [1, 7]: 0%
remaining activity at 15 µM [1, 8]: 0%
remaining activity at 37.5 µM [1, 7]: 0%
remaining activity at 37.5 µM [1, 8]: 0%
remaining activity at 75 µM ([1]; 75 µM, wild-type C. elegans, mean of Rep1-4, read-out: percent in vitro complex I activity relative to solvent control, Mean): 0.911%
IC50 [1, 3]: 0.032 µM
Log IC50 C. elegans complex I [1]: -1.49 µM
IC50 [1, 6]: 0.032 µM
IC50 [1, 4]: 0.032 µM
IC50 [2, 5]: 0.209 µM
IC50 ([2]; in vitro complex I dose response on B. taurus mitochondria, average of at least two biological replicates, fit in R (DRC), read-out: IC50 B. taurus complex I): 0.21 µM
Log IC50 B. taurus complex I [2]: -0.68 µM
